According to patent publication US20100137206A1, “NOVEL LIGAND GUIDED BLOCK COPOLYMERS FOR TARGETED DRUG DELIVERY” (priority 2006, published 2010):
Where two headings read alike, the source gives them in different places.

Tested on: B16-F10 cells
Assay: MTT cytotoxicity of DOX-containing micelles
Assay type: cell-based
Details: for IC50: read-out: IC50 (μM) of DOX equivalent
Method: Briefly, 4000 cells were plated in 96-well plates and incubated for 24 h to allow the cells to attach. […] Living cells metabolize MTT to a dark formazan dye. The cell culture media was removed by aspiration and replaced with 200 μL DMSO. The absorbance was measured spectrophotometrically using a microplate reader at dual wavelengths of 570 nm and 650 nm. The data reported represent the means of triplicate measurement.

COc1cccc2c1C(=O)c1c(O)c3c(c(O)c1C2=O)C[C@@](O)(C(=O)CO)C[C@@H]3O[C@H]1C[C@H](N)[C@H](O)[C@H](C)O1 [Free DOX, doxorubicin, reference compound]
IC50 (24 h incubation): 0.417 µM
IC50 (48 h incubation): 0.204 µM

doxorubicin-conjugated acetal polyethylene oxide)-block-poly(caprolactone) [Acetal-PEO-b-PCL(DOX)]
fold difference of IC50 in comparison to free DOX (24 h incubation): 14.3 fold
IC50 (24 h incubation): 5.95 µM
fold difference of IC50 in comparison to free DOX (48 h incubation): 6.3 fold
IC50 (48 h incubation): 1.28 µM
